Assay results taken from patent US20070128217A1 (priority 2003, published 2007).

Legend:
[1] = system: control sera (pooled serum of ten healthy LUMC hospital workers; commercial negative donor pooled serum from the Dutch bloodbank); assay type: binding, human
[2] = system: rabbit serum obtained by immunizing a rabbit with the SARS-CoV strain Frankfurt 1; assay type: binding; design: Binding of a rabbit serum to linear peptides / Binding of a rabbit serum to looped peptides / Rabbit serum linear peptides / Rabbit serum looped peptides / Binding of a rabbit serum to linear peptides of protein N of SARS-CoV Urbani (Rabbit serum linear peptides) / Binding of a rabbit serum to looped/cyclic peptides of protein N of SARS-CoV Urbani (Rabbit serum looped peptides): unit not given here
[3] = system: antibodies in sera from SARS patients (sera 1a, 1b, 2, 6, 37, 62, London, SARS-yellow, SARS-green); assay type: binding, human

VVFLLVTLAILTALR
Binding of Control Serum Blood-Bank to Looped peptides [1]: 0.6 | Binding of Control serum Blood-bank to linear peptides [1]: 0.6 | Binding of Control serum LUMC to linear peptides [1]: 0.4 | Binding of Control serum LUMC to looped peptides [1]: 0.6 | Binding of a rabbit serum to linear peptides [2]: 0.5 | Binding of a rabbit serum to looped peptides [2]: 0.2 | Binding of serum 1a to linear peptides of protein E of SARS-CoV Urbani [3]: 0.7 | Binding of serum 1a to looped/cyclic peptides of protein E of SARS-CoV Urbani [3]: 0.5 | Binding of serum 1b to linear peptides of protein E of SARS-CoV Urbani [3]: 0.4 | Binding of serum 1b to looped/cyclic peptides of protein E of SARS-CoV Urbani [3]: 0.3 | Binding of serum 2 to linear peptides of protein E of SARS-CoV Urbani [3]: 0.4 | Binding of serum 2 to looped/cyclic peptides of protein E of SARS-CoV Urbani [3]: 0.5 | Binding of serum 6 to linear peptides of protein E of SARS-CoV Urbani [3]: 0.6 | Binding of serum 6 to looped/cyclic peptides of protein E of SARS-CoV Urbani [3]: 0.5 | Binding of serum 37 to linear peptides of protein E of SARS-CoV Urbani [3]: 0.6 | Binding of serum 37 to looped/cyclic peptides of protein E of SARS-CoV Urbani [3]: 0.4 | Binding of serum 62 to linear peptides of protein E of SARS-CoV Urbani [3]: 0.6 | Binding of serum 62 to looped/cyclic peptides of protein E of SARS-CoV Urbani [3]: 0.7 | Binding of serum London to linear peptides of protein E of SARS-CoV Urbani [3]: 0.5 | Binding of serum London to looped/cyclic peptides of protein E of SARS-CoV Urbani [3]: 0.5 | Binding of serum SARS-green to linear peptides of protein E of SARS-CoV Urbani [3]: 0.5 | Binding of serum SARS-green to looped/cyclic peptides of protein E of SARS-CoV Urbani [3]: 0.2 | Binding of serum SARS-yellow to linear peptides of protein E of SARS-CoV Urbani [3]: 0.1 | Binding of serum SARS-yellow to looped/cyclic peptides of protein E of SARS-CoV Urbani [3]: 0.5
